EC50 data for 24 molecules are collected here from patent US20220396569A1 (Carmot Therapeutics, Inc., priority 2021, published 2022).

The structures appear in SMILES notation. pEC50: −log10 of the molar value.

T1 sequence (P43220 24-463): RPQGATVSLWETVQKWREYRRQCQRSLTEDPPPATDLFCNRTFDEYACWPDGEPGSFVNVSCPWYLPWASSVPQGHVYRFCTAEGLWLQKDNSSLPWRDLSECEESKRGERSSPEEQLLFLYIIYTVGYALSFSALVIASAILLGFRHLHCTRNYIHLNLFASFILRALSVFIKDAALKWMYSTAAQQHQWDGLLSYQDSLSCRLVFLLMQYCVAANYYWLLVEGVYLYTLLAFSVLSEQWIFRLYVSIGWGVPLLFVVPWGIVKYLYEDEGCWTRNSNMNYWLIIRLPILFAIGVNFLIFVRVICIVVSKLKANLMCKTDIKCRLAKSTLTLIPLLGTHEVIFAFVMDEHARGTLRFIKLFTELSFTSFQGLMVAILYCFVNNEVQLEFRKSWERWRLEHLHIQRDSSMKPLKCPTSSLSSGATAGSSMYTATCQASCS

The test has as its target T1, human GLP-1 receptor (Homo sapiens, UniProt P43220).
T1 construct: expressed in transfected cells
Briefly: GLP-1R cAMP Assay (HitHunter cAMP accumulation). It is filed as cell-based. Particulars: cAMP accumulation, CHO cells stably overexpressing human GLP-1 receptor, 30 min treatment; read-out: EC50. The procedure: cAMP accumulation was measured in Chinese hamster ovary (CHO) cells stably overexpressing the human GLP-1 receptor using the HitHunter cAMP Assay for Small Molecules Kit (Eurofins). Briefly, cells were grown in Ham's F12 Nutrient Mix with 10% FBS, and lifted with Cell Dissociation Buffer, Enzyme free, PBS based (ThermoFisher). Cells were pelleted, and resuspended in Hank's buffered saline solution with 10 mM HEPES, and 625 μM 3-isobutyl-1-methylxanthine. The anti-cAMP antibody reagent was then added to cells at a 1:2 ratio and 5 μL of mixture was seeded in 384-well small volume white assay plates, at 10,000 cells/well. Cells were then treated with 50 nL compound using an ECHO 550 acoustic dispenser (Labcyte) in a 20-point dose response format in triplicate for 30 min. Cells were then lysed, and detection reagents added according to the manufacturer's protocol. After overnight incubation, luminescence was measured using a Perkin Elmer Envision plate reader. Dose response curves were analyzed using GraphPad Prism 9.0. […]
On the technique in general: cAMP levels reflect the balance of adenylyl cyclase and phosphodiesterase activity.
Consider `O=C(O)c1ccc2nc(CN3CC=C(c4cc(COc5ccc(Cl)cc5Cl)ccn4)C3)n(Cc3cnco3)c2c1` [Example 390, 2-((3-(4-((2,4-Dichlorophenoxy)methyl)pyridin-2-yl)-2,5-dihydro-1H-pyrrol-1-yl)methyl)-1-(oxazol-5-ylmethyl)-1H-benzo[d]imidazole-6-carboxylic acid], for which the negative-log EC50 (pEC50) (in general, −log10 of the EC50, conventionally taken in molar units) was greater than 7.30.

Take `CC1(c2ccc(Cl)cc2F)Oc2cccc(CC3CCN(Cc4nc5ccc(C(=O)O)cc5n4C[C@@H]4CCO4)CC3)c2O1` (stereo partly drawn) [Example 201, 2-((4-((2-(4-Chloro-2-fluorophenyl)-2-methylbenzo[d][1,3]dioxol-4-yl)methyl)piperidin-1-yl)methyl)-1-(((S)-oxetan-2-yl)methyl)-1H-benzo[d]imidazole-6-carboxylic acid]: the pEC50 is 6.30 to 7.30.

For `O=C(O)c1cc(F)c2nc(CN3CC=C(c4ccc(F)c(COc5ccc(Cl)cc5F)n4)C3)n(C[C@@H]3CCO3)c2c1` [Compound 413, 2-[(3-{6-[(4-chloro-2-fluorophenoxy)methyl]-5-fluoropyridin-2-yl}-2,5-dihydro-1H-pyrrol-1-yl)methyl]-4-fluoro-1-{[(2S)-oxetan-2-yl]methyl}-1H-1,3-benzodiazole-6-carboxylic acid], the pEC50 was greater than 7.30.

Consider `O=C(O)c1ccc2nc(CN3CCC(c4cc(COc5ccc(Cl)cc5F)ccn4)C3)n(Cc3ncco3)c2c1` (stereo not drawn) [Compound 398, 2-[(3-{4-[(4-chloro-2-fluorophenoxy)methyl]pyridin-2-yl}pyrrolidin-1-yl)methyl]-1-[(1,3-oxazol-2-yl)methyl]-1H-1,3-benzodiazole-6-carboxylic acid], for which the pEC50 is greater than 7.30.

As to `N#Cc1ccc(OCc2nc(N3CC[C@@H](Cc4nc5ccc(C(=O)O)cc5n4C[C@@H]4CCO4)C3)ccc2F)c(F)c1` [Compound 533, 2-(((S)-1-(6-((4-Cyano-2-fluorophenoxy)methyl)-5-fluoropyridin-2-yl)pyrrolidin-3-yl)methyl)-1-(((S)-oxetan-2-yl)methyl)-1H-benzo[d]imidazole-6-carboxylic acid], the pEC50 was greater than 7.30.

As for `C[C@H]1[C@@H](Oc2ccnc(COc3ccc(F)cc3F)n2)CN1Cc1nc2ccc(C(=O)O)cc2n1C[C@@H]1CCO1` [Compound 548], the negative-log EC50 (pEC50) is greater than 7.30.

Regarding `CCn1cncc1Cn1c(CN2C[C@H](Oc3ccnc(COc4ccc(Cl)cc4Cl)c3)[C@@H]2C)nc2ccc(C(=O)O)cc21` [Compound 273, 2-{[(2S,3S)-3-({2-[(2,4-dichlorophenoxy)methyl]pyridin-4-yl}oxy)-2-methylazetidin-1-yl]methyl}-1-[(1-ethyl-1H-imidazol-5-yl)methyl]-1H-1,3-benzodiazole-6-carboxylic acid], the pEC50 was greater than 7.30.

Turning to `N#Cc1ccc(OCc2nc(C3=CCN(Cc4nc5ccc(C(=O)O)cc5n4C[C@@H]4CCO4)C3)ccc2F)c(F)c1` [Compound 408, 2-[(3-{6-[(4-cyano-2-fluorophenoxy)methyl]-5-fluoropyridin-2-yl}-2,5-dihydro-1H-pyrrol-1-yl)methyl]-1-{[(2S)-oxetan-2-yl]methyl}-1H-1,3-benzodiazole-6-carboxylic acid], the negative-log EC50 (pEC50) was greater than 7.30.

Regarding `O=C(O)c1cc(F)c2nc(CN3CC=C(c4nc(COc5ccc(Cl)cc5F)ccc4F)C3)n(C[C@@H]3CCO3)c2c1` [Compound 437, 2-[(3-{6-[(4-chloro-2-fluorophenoxy)methyl]-3-fluoropyridin-2-yl}-2,5-dihydro-1H-pyrrol-1-yl)methyl]-4-fluoro-1-{[(2S)-oxetan-2-yl]methyl}-1H-1,3-benzodiazole-6-carboxylic acid], the pEC50 is greater than 7.30.

On to `O=C(O)c1ccc2nc(CN3CC(Cc4ccnc(COc5ccc(Cl)cc5Cl)c4)C3)n(C[C@H]3CCOC3)c2c1` [Compound 180], for which the negative logarithm of the EC50 (pEC50) was greater than 7.30.

In the case of `N#Cc1ccc(OCc2nccc(Oc3ccc(Cc4nc5ccc(C(=O)O)cc5n4C[C@@H]4CCO4)c(F)c3)n2)c(F)c1` [Compound 465, 2-{[4-({2-[(4-cyano-2-fluorophenoxy)methyl]pyrimidin-4-yl}oxy)-2-fluorophenyl]methyl}-1-{[(2S)-oxetan-2-yl]methyl}-1H-1,3-benzodiazole-6-carboxylic acid], the negative-log EC50 (pEC50) was greater than 7.30.

`O=C(O)c1ccc2nc(CN3CC=C(c4cc(F)cc(COc5ccc(Cl)cc5F)c4)C3)n(C[C@@H]3CCO3)c2c1` [Compound 418, 2-[(3-{3-[(4-chloro-2-fluorophenoxy)methyl]-5-fluorophenyl}-2,5-dihydro-1H-pyrrol-1-yl)methyl]-1-{[(2S)-oxetan-2-yl]methyl}-1H-1,3-benzodiazole-6-carboxylic acid]: the negative-log EC50 (pEC50) was greater than 7.30.

Turning to `Cc1cc(Oc2ccnc(COc3ccc(C#N)cc3F)n2)ccc1Cc1nc2ccc(C(=O)O)cc2n1C[C@@H]1CCO1` [Compound 541, 2-{[4-({2-[(4-cyano-2-fluorophenoxy)methyl]pyrimidin-4-yl}oxy)-2-methylphenyl]methyl}-1-{[(2S)-oxetan-2-yl]methyl}-1H-1,3-benzodiazole-6-carboxylic acid], the pEC50 is greater than 7.30.

Regarding `CCn1cncc1Cn1c(Cc2ccc(Oc3cccc(COc4ccc(Cl)cc4F)n3)cc2F)nc2ccc(C(=O)O)cc21` [Compound 463, 2-{[4-({6-[(4-chloro-2-fluorophenoxy)methyl]pyridin-2-yl}oxy)-2-fluorophenyl]methyl}-1-[(1-ethyl-1H-imidazol-5-yl)methyl]-1H-1,3-benzodiazole-6-carboxylic acid], the pEC50 is greater than 7.30.

As to `CCn1cncc1Cn1c(CN2CCC(Cn3ccc(COc4ccc(Cl)cc4C#N)n3)CC2)nc2ccc(C(=O)O)cc21` [Compound 282, 2-{[4-({3-[(4-chloro-2-cyanophenoxy)methyl]-1H-pyrazol-1-yl}methyl)piperidin-1-yl]methyl}-1-[(1-ethyl-1H-imidazol-5-yl)methyl]-1H-1,3-benzodiazole-6-carboxylic acid], the pEC50 was greater than 7.30.

`O=C(O)c1ccc2nc(CN3CCC(c4cc(F)cc(COc5ccc(Cl)cc5F)c4)C3)n(C[C@@H]3CCO3)c2c1` (stereo partly drawn) [Compound 420, 2-[(3-{3-[(4-chloro-2-fluorophenoxy)methyl]-5-fluorophenyl}pyrrolidin-1-yl)methyl]-1-{[(2S)-oxetan-2-yl]methyl}-1H-1,3-benzodiazole-6-carboxylic acid]: the pEC50 is greater than 7.30.

For the molecule `O=C(O)c1ccc2nc(Cc3cc(F)c(Oc4ccnc(COc5ccc(Cl)cc5F)c4)cc3F)n(C[C@@H]3CCO3)c2c1` [Compound 536, (S)-2-(4-((2-((4-Chloro-2-fluorophenoxy)methyl)pyridin-4-yl)oxy)-2,5-difluorobenzyl)-1-(oxetan-2-ylmethyl)-1H-benzo[d]imidazole-6-carboxylic acid], the negative logarithm of the EC50 (pEC50) is greater than 7.30.

Consider `CCn1cncc1Cn1c(Cc2ccc(Oc3ccnc(COc4ccc(Cl)cc4F)c3)cc2F)nc2ccc(C(=O)O)cc21` [Compound 462, 2-{[4-({2-[(4-chloro-2-fluorophenoxy)methyl]pyridin-4-yl}oxy)-2-fluorophenyl]methyl}-1-[(1-ethyl-1H-imidazol-5-yl)methyl]-1H-1,3-benzodiazole-6-carboxylic acid], for which the pEC50 was greater than 7.30.

Consider `CCn1cncc1Cn1c(CN2C[C@H](Oc3cccc(COc4ccc(Cl)cc4Cl)c3)[C@@H]2C)nc2ccc(C(=O)O)cc21` [Example 233, 2-(((2S,3S)-3-(3-((2,4-Dichlorophenoxy)methyl)phenoxy)-2-methylazetidin-1-yl)methyl)-1-((1-ethyl-1H-imidazol-5-yl)methyl)-1H-benzo[d]imidazole-6-carboxylic acid], for which the pEC50 is greater than 7.30.

Consider `CCn1cncc1Cn1c(CN2CC(Cc3cnc(COc4ccc(Cl)cc4C#N)o3)C2)nc2ccc(C(=O)O)cc21` [Compound 167, 2-{[3-({2-[(4-chloro-2-cyanophenoxy)methyl]-1,3-oxazol-5-yl}methyl)azetidin-1-yl]methyl}-1-[(1-ethyl-1H-imidazol-5-yl)methyl]-1H-1,3-benzodiazole-6-carboxylic acid], for which the negative logarithm of the EC50 (pEC50) is greater than 7.30.

Take `O=C(O)c1cc(F)c2nc(CN3CC[C@H](c4cccc(COc5ccc(Cl)cc5F)n4)C3)n(C[C@@H]3CCO3)c2c1` [Compound 442, 2-{[(3S)-3-{6-[(4-chloro-2-fluorophenoxy)methyl]pyridin-2-yl}pyrrolidin-1-yl]methyl}-4-fluoro-1-{[(2S)-oxetan-2-yl]methyl}-1H-1,3-benzodiazole-6-carboxylic acid]: the negative-log EC50 (pEC50) is greater than 7.30.

As to `O=C(O)c1cc(F)c2nc(CN3CC=C(c4cc(COc5ccc(Cl)cc5F)ncc4F)C3)n(C[C@@H]3CCO3)c2c1` [Compound 452], the negative-log EC50 (pEC50) was greater than 7.30.

As for `O=C(O)c1ccc2nc(CN3CCC(Cn4ccc(COc5ccc(Cl)cc5Cl)n4)CC3)n(C[C@@H]3CCO3)c2c1` [Example 127, (S)-2-((4-((3-((2,4-dichlorophenoxy)methyl)-1H-pyrazol-1-yl)methyl)piperidin-1-yl)methyl)-1-(oxetan-2-ylmethyl)-1H-benzo[d]imidazole-6-carboxylic acid], the pEC50 is greater than 7.30.

For `N#Cc1ccc(OCc2nc(C34CC3CN(Cc3nc5ccc(C(=O)O)cc5n3C[C@@H]3CCO3)C4)ccc2F)c(Cl)c1` (stereo partly drawn) [Compound 524, 2-[(1-{6-[(2-chloro-4-cyanophenoxy)methyl]-5-fluoropyridin-2-yl}-3-azabicyclo[3.1.0]hexan-3-yl)methyl]-1-{[(2S)-oxetan-2-yl]methyl}-1H-1,3-benzodiazole-6-carboxylic acid], the negative logarithm of the EC50 (pEC50) is greater than 7.30.
